Measured values as given in US20260098283A1, “In Vitro Bioproduction of Specific Chain Legnth Poly(hydroxyalkanoate) Monomers” (Kimberly-Clark Worldwide, Inc., priority 2022, published 2026).

Columns and labels:
[1] = test system: overall 5-step reaction from long-chain fatty acid CoA to PHA; assay: formation of precipitating PHA, optical density 650 nm, Example 1; assay type: biochemical, Thermobifida halotolerans; details: Example 1, FIG. 8; fatty acid as starting material
Excerpt: (§1) • Sources: Enzyme sequences were identified by searching the NCBI Protein or Identical Protein Group databases. For this example, it was decided to focus primarily on the thermohalophile Thermobifida halotolerans. Sequences and accession numbers for the enzymes used in this work are listed in Appendix I. All general laboratory chemicals and long chain fatty acids were purchased from Millipore-Sigma Chemical Company (St. Louis, MO). Cloning materials and protein purification supplies were from New England Biolabs (Beverly, MA). • Enzyme cloning: The amino acid sequence for each enzyme was searched for potential signal sequences. If one was present it was removed from the sequence. A histine tag and a TEV protease cleavage sequence were added to the N-ter of each enzyme. This sequence was MHHHHHHENLYFQS to assist in purification (via an NTA-Ni column) and subsequent removal of the hexahistidine tag. Each recombinant enzyme began with an N-ter serine residue as TEV protease cleaves after the glutamine (Q). Each amino acid sequence was back translated to an E. coli codon optimized nucleic acid sequence and was synthesized using standard laboratory gene synthesis techniques. The insert was digested with Nde I and cloned into the similarly digested expression vector pET11d. Final DNA sequences were verified by DNA sequencing. Expression plasmids were used to transform E. coli Origami2 (DE3) for expression. • Protein expression and purification: A single colony was used to inoculate 5.0 mL of LBamp media (80 mg/ml ampicillin concentration). Bacteria were grown for 12 hours at 37° C. and this culture was used to inoculate 500 mL of LBamp media. This culture was grown at 37° C. until the optical density (600 nm) reached 0.4 (typically in 3-5 hours). Protein expression was induced by the addition of IPTG to a final concentration of 1 mM. Cells were grown for 12 hours at 37° C. Cells were harvested by centrifugation at 5,000×g for 20 minutes, and frozen at −80° C. until use (minimal time frozen was 24 hours). […] 100 U of TEV protease was added per mg of enzyme (approximate ratio of 1:100 (w/w). The reaction was allowed to proceed for 16 h at 4° C. The mixture was passed over a charged nickel column. One column volume of eluent was collected representing purified tag-free enzyme. • Enzyme assays: The formation of long-chain fatty acid-CoA was monitored by measuring the amount of pyrophosphate released from the reaction using the MAK 168 pyrophosphate assay kit from Millipore-Sigma Chemical Co (St. Louis, MO). The formation of PHA was monitored by the increase in optical density (650 nm) as a function of time in a Molecular Devices SpectraMax 5 spectrometer. […]

[2] = test system: fatty acid-CoA ligase QKS24074; assay: substrate chain length preference of fatty acid-CoA ligase QKS24074; assay type: biochemical, Halomonas titanicae; details: for percent activity: substrate chain length preference distribution, percent activity vs. carbon length, enzyme QKS24074; for suitability of the enzyme for the fatty acid (optimal / possible / not possible): result in words
Excerpt: (§2) • Sources: Enzyme sequences were identified by searching the NCBI Protein or Identical Protein Group databases. For this example, it was decided to focus primarily on the thermohalophile Thermobifida halotolerans. Sequences and accession numbers for the enzymes used in this work are listed in Appendix I. All general laboratory chemicals and long chain fatty acids were purchased from Millipore-Sigma Chemical Company (St. Louis, MO). Cloning materials and protein purification supplies were from New England Biolabs (Beverly, MA). • Enzyme cloning: The amino acid sequence for each enzyme was searched for potential signal sequences. If one was present it was removed from the sequence. A histine tag and a TEV protease cleavage sequence were added to the N-ter of each enzyme. This sequence was MHHHHHHENLYFQS to assist in purification (via an NTA-Ni column) and subsequent removal of the hexahistidine tag. Each recombinant enzyme began with an N-ter serine residue as TEV protease cleaves after the glutamine (Q). Each amino acid sequence was back translated to an E. coli codon optimized nucleic acid sequence and was synthesized using standard laboratory gene synthesis techniques. The insert was digested with Nde I and cloned into the similarly digested expression vector pET11d. Final DNA sequences were verified by DNA sequencing. Expression plasmids were used to transform E. coli Origami2 (DE3) for expression. • Protein expression and purification: A single colony was used to inoculate 5.0 mL of LBamp media (80 mg/ml ampicillin concentration). Bacteria were grown for 12 hours at 37° C. and this culture was used to inoculate 500 mL of LBamp media. This culture was grown at 37° C. until the optical density (600 nm) reached 0.4 (typically in 3-5 hours). Protein expression was induced by the addition of IPTG to a final concentration of 1 mM. Cells were grown for 12 hours at 37° C. Cells were harvested by centrifugation at 5,000×g for 20 minutes, and frozen at −80° C. until use (minimal time frozen was 24 hours). Cells were thawed on ice and were resuspended in Buffer A (0.5 M NaCl, 20 mM Tris-HCl, 5 mM imidazole, pH 7.9) (typically 1 mL per gram of cells). Cells were disrupted via two passes through a French Press followed by centrifugation at 30,000×g for 30 minutes. The crude extract was mixed with an equal volume of charged His-Bind resin slurry and the mixture was poured into 5 cm×4.9 cc column. The column was washed with 10 column volumes of wash buffer (0.5 M NaCl, 20 mM Tris-HCl, 60 mM imidazole, pH 7.9) at a flow rate of 0.2 mL/min. Enzyme was eluted from the column with the addition of 3 column volumes of 0.5 M NaCl, 20 mM Tris-HCl, 1.0 M imidazole, pH 7.9. Fractions were collected (1.0 mL). Fractions containing enzyme were pooled after analysis by SDS PAGE. The pooled fractions were applied to a 70 cmp×4.9 cc Sephadex G-75 column (10 mM Tris-HCl, PH 7.5, 1 mM EDTA). Fractions containing homogeneous protein were pooled (after inspection by SDS PAGE) and concentrated to 5 mg/ml via Centricon filters. Enzyme was stored frozen at −20° C. until use. The TRX-histidine tag region was removed from the enzymes using TEV protease. Protein was diluted to 1.0 mg/ml into 10 mM Tris-HCl, pH 7.5, 25 mM NaCl. 100 U of TEV protease was added per mg of enzyme (approximate ratio of 1:100 (w/w). The reaction was allowed to proceed for 16 h at 4° C. The mixture was passed over a charged nickel column. One column volume of eluent was collected representing purified tag-free enzyme. • Enzyme assays: The formation of long-chain fatty acid-CoA was monitored by measuring the amount of pyrophosphate released from the reaction using the MAK 168 pyrophosphate assay kit from Millipore-Sigma Chemical Co (St. Louis, MO). The formation of PHA was monitored by the increase in optical density (650 nm) as a function of time in a Molecular Devices SpectraMax 5 spectrometer. The assay measures the increase in light scattering due to precipitating PHA formed during the reaction. […]

[3] = test system: fatty acid-CoA ligase QKS26753; assay: substrate chain length preference of fatty acid-CoA ligase QKS26753; assay type: biochemical, Halomonas titanicae; details: for percent activity: substrate chain length preference distribution, percent activity vs. carbon length, enzyme QKS26753; for suitability of the enzyme for the fatty acid (optimal / possible / not possible): result in words
Excerpt: as §2

[4] = test system: fatty acid-CoA ligase QKS24113; assay: substrate chain length preference of fatty acid-CoA ligase QKS24113; assay type: biochemical, Halomonas titanicae; details: for percent activity: substrate chain length preference distribution, percent activity vs. carbon length, enzyme QKS24113; for suitability of the enzyme for the fatty acid (optimal / possible / not possible): result in words
Excerpt: as §2

[5] = test system: long-chain fatty acid CoA ligase; assay: long-chain fatty acid CoA ligase reaction time course, Example 1 (fatty acid loss, pyrophosphate formation); assay type: biochemical, Thermobifida halotolerans; details: Example 1, FIG. 6/7; single fatty acid substrate
Excerpt: • Sources: Enzyme sequences were identified by searching the NCBI Protein or Identical Protein Group databases. For this example, it was decided to focus primarily on the thermohalophile Thermobifida halotolerans. Sequences and accession numbers for the enzymes used in this work are listed in Appendix I. All general laboratory chemicals and long chain fatty acids were purchased from Millipore-Sigma Chemical Company (St. Louis, MO). Cloning materials and protein purification supplies were from New England Biolabs (Beverly, MA). • Enzyme cloning: The amino acid sequence for each enzyme was searched for potential signal sequences. If one was present it was removed from the sequence. […] 100 U of TEV protease was added per mg of enzyme (approximate ratio of 1:100 (w/w). The reaction was allowed to proceed for 16 h at 4° C. The mixture was passed over a charged nickel column. One column volume of eluent was collected representing purified tag-free enzyme. • Enzyme assays: The formation of long-chain fatty acid-CoA was monitored by measuring the amount of pyrophosphate released from the reaction using the MAK 168 pyrophosphate assay kit from Millipore-Sigma Chemical Co (St. Louis, MO). The formation of PHA was monitored by the increase in optical density (650 nm) as a function of time in a Molecular Devices SpectraMax 5 spectrometer. […]

[6] = test system: fatty acid-CoA ligase QKS23364; assay: substrate chain length preference of fatty acid-CoA ligase QKS23364; assay type: biochemical, Halomonas titanicae; details: for percent activity: substrate chain length preference distribution, percent activity vs. carbon length, enzyme QKS23364; for suitability of the enzyme for the fatty acid (optimal / possible / not possible): result in words
Excerpt: as §2

[7] = test system: fatty acid-CoA ligase QKS25406; assay: substrate chain length preference of fatty acid-CoA ligase QKS25406; assay type: biochemical, Halomonas titanicae; details: for percent activity: substrate chain length preference distribution, percent activity vs. carbon length, enzyme QKS25406; for suitability of the enzyme for the fatty acid (optimal / possible / not possible): result in words
Excerpt: as §2

fatty acid-CoA ligase = assay: long-chain fatty acid CoA ligase reaction time course, Example 5; assay type: biochemical, Halomonas titanicae; details: Example 5, FIG. 20/21; 1.0 M NaCl, pH 7.5
Excerpt: as §1, with “sequencing.” for “sequencing. Expression plasmids were used to transform E. coli Origami2 (DE3) for expression. • Protein expression and purification: A single colony was used to inoculate 5.0 mL of LBamp media (80 mg/ml ampicillin concentration). Bacteria were grown for 12 hours at 37° C. and this culture was used to inoculate 500 mL of LBamp media. This culture was grown at 37° C. until the optical density (600 nm) reached 0.4 (typically in 3-5 hours). Protein expression was induced by the addition of IPTG to a final concentration of 1 mM. Cells were grown for 12 hours at 37° C. Cells were harvested by centrifugation at 5,000×g for 20 minutes, and frozen at −80° C. until use (minimal time frozen was 24 hours).”

[8] = test system: five-step reaction from long-chain fatty acid CoA to PHA; assay: formation of precipitating PHA, optical density 650 nm, Example 5; assay type: biochemical, Halomonas titanicae; details: Example 5, FIG. 22; fatty acid as starting material
Excerpt: as §1, with “sequencing.” for “sequencing. Expression plasmids were used to transform E. coli Origami2 (DE3) for expression. • Protein expression and purification: A single colony was used to inoculate 5.0 mL of LBamp media (80 mg/ml ampicillin concentration). Bacteria were grown for 12 hours at 37° C. and this culture was used to inoculate 500 mL of LBamp media. This culture was grown at 37° C. until the optical density (600 nm) reached 0.4 (typically in 3-5 hours). Protein expression was induced by the addition of IPTG to a final concentration of 1 mM. Cells were grown for 12 hours at 37° C. Cells were harvested by centrifugation at 5,000×g for 20 minutes, and frozen at −80° C. until use (minimal time frozen was 24 hours).”

percent activity [2] [%]	percent activity [3] [%]	percent activity [4] [%]	percent activity [6] [%]	percent activity [7] [%]	Structure (SMILES)	duration of linear formation of precipitating PHA after the lag [1] [min]	lag before measurable increase in optical density (650 nm) [1]	time to completion of the long-chain fatty acid CoA ligase reaction [5]	time to completion of the long-chain fatty acid CoA ligase reaction (fatty acid-CoA ligase)	suitability of the enzyme for the fatty acid (optimal / possible / not possible) [2]	suitability of the enzyme for the fatty acid (optimal / possible / not possible) [3]	suitability of the enzyme for the fatty acid (optimal / possible / not possible) [4]	suitability of the enzyme for the fatty acid (optimal / possible / not possible) [6]	duration of linear formation of precipitating PHA after the lag [8] [min]	suitability of the enzyme for the fatty acid (optimal / possible / not possible) [7]
0.0	5.6	100	100	100	CCCCCCCCCCCCCCCCCCCC(=O)O [C18, arachidic acid]	150	approximately 50 minutes	complete within two hours	–	–	–	–	–	–	–
100	0.0	0.0	70.7	0.0	CCCCCCCCCC(=O)O [C8]	–	–	–	–	–	–	–	–	–	–
100	0.0	0.0	25.0	0.0	CCCCCCCC(=O)O [C6, octanoic acid]	–	–	–	complete within two hours	optimal enzyme	not possible enzymes	not possible enzymes	much lower activity	100	not possible enzymes

Structure (SMILES)	percent activity [2] [%]	percent activity [3] [%]	percent activity [4] [%]	percent activity [6] [%]	percent activity [7] [%]	duration of linear formation of precipitating PHA after the lag [1] [min]	lag before measurable increase in optical density (650 nm) [1]	time to completion of the long-chain fatty acid CoA ligase reaction [5]	time to completion of the long-chain fatty acid CoA ligase reaction (fatty acid-CoA ligase)	suitability of the enzyme for the fatty acid (optimal / possible / not possible) [2]	suitability of the enzyme for the fatty acid (optimal / possible / not possible) [3]	suitability of the enzyme for the fatty acid (optimal / possible / not possible) [4]	suitability of the enzyme for the fatty acid (optimal / possible / not possible) [6]	duration of linear formation of precipitating PHA after the lag [8] [min]	suitability of the enzyme for the fatty acid (optimal / possible / not possible) [7]
CCCCCCCCCCCCCCCCCCCCCC(=O)O [C20, behenic acid]	0.0	0.0	100	46.5	100	–	–	–	complete within two hours	not possible enzymes	not possible enzymes	optimal enzymes	much lower activity	100	optimal enzymes
